This note sets out measurements from publication PMC9658017, “Hydroxygenkwanin Improves the Efficacy of Cytotoxic Drugs in ABCG2-Overexpressing Multidrug-Resistant Cancer Cells” (International Journal of Molecular Sciences, 2022).

This test deals with T1, ABCG2 (Homo sapiens, UniProt Q9UNQ0).
T1 sequence (Q9UNQ0 1-655): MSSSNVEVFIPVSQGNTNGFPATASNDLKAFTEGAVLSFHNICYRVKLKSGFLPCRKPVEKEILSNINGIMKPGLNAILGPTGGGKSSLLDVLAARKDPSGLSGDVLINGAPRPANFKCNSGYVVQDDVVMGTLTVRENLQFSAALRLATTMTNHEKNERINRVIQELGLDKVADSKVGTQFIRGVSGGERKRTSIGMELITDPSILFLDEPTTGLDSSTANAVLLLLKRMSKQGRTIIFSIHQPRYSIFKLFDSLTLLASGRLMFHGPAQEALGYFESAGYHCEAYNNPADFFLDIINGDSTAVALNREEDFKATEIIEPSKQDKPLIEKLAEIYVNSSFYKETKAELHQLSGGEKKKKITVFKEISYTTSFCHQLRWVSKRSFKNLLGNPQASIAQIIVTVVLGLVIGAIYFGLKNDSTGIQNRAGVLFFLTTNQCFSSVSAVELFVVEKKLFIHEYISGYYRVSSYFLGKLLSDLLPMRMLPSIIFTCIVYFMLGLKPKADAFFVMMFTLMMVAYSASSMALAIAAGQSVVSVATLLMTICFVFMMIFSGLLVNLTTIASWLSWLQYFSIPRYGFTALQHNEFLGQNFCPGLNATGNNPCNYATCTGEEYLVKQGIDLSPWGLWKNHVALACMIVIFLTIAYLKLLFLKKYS
As to the kind of experiment: biochemical.

For orientation: EC50 means the midpoint of the concentration-response curve. A low value points to greater potency.

Consider `COc1cc(O)c2c(=O)cc(-c3ccc(O)c(O)c3)oc2c1` [HGK, Hydroxygenkwanin], for which the concentration for a half-maximal effect (EC50) was approximately 19 nM.
